Measurements taken from US20240166652A1, “MODULATORS OF THE INTEGRATED STRESS PATHWAY” (Calico Life Sciences LLC, priority 2017, published 2024).
pEC50: −log10 of the molar value.

What follows are compounds tested on ATF4 luciferase reporter in HEK293T cells (assay: ATF4-Luc assay (ATF4 luciferase reporter, tunicamycin-treated HEK293T cells)). Settings: Homo sapiens, HEK-293T; HEK293T cells carrying the ATF4 luciferase reporter, 1 μg/mL tunicamycin, 7 hours.
Type: cell-based, human
With `O=C(CNC(=O)c1ccc(OC(F)(F)F)cn1)NC12CC(NC(=O)COc3ccc(Cl)c(F)c3)(C1)C2` [Compound 386, N-[2-({3-[2-(4-chloro-3-fluorophenoxy)acetamido]bicyclo[1.1.1]pentan-1-yl}amino)-2-oxoethyl]-5-(trifluoromethoxy)pyridine-2-carboxamide] the pEC50 was under 5.70. `O=C(COc1ccc(F)c(F)c1)NC12CCC(NC(=O)COc3ccc(F)cc3)(CC1)C(O)C2` (centres unmarked) [Compound 364, 2-(3,4-difluorophenoxy)-N-{4-[2-(4-fluorophenoxy)acetamido]-3-hydroxybicyclo[2.2.2]octan-1-yl}acetamide] gave a pEC50 of over 8.00. For `Cc1ccc(OCC(=O)NC23CCC(NC(=O)COc4ccc(F)c(F)c4)(CC2)[C@@H](O)C3)cc1F` [Compound 734, 2-(3,4-difluorophenoxy)-N-{(2S)-4-[2-(3-fluoro-4-methylphenoxy)acetamido]-2-hydroxybicyclo[2.2.2]octan-1-yl}acetamide], the pEC50 was over 8.00. `O=C(COCCc1ccc(Cl)cc1)NC12CC(NC(=O)COc3ccc(Cl)c(F)c3)(C1)C2` [Compound 135, 2-(4-chloro-3-fluorophenoxy)-N-(3-{2-[2-(4-chlorophenyl)ethoxy]acetamido}-bicyclo[1.1.1]pentan-1-yl)acetamide] showed a pEC50 of 6.30 to 6.60. In the case of `O=C(COc1ccc(Cl)c(F)c1)NC12CCC(NC(=O)COc3ccc(F)cc3)(CC1)C(O)C2` (centres unmarked) [Compound 345, 2-(4-chloro-3-fluorophenoxy)-N-{4-[2-(4-fluorophenoxy)acetamido]-3-hydroxybicyclo[2.2.2]octan-1-yl}acetamide], the pEC50 was over 8.00. Compound `O=C(COc1cc(C(F)(F)F)nc(C(F)(F)F)c1)NC12CC(NC(=O)COc3ccc(Cl)c(F)c3)(C1)C2` [Compound 296, 2-{[2,6-bis(trifluoromethyl)pyridin-4-yl]oxy}-N-{3-[2-(4-chloro-3-fluorophenoxy)acetamido]bicyclo[1.1.1]pentan-1-yl}acetamide] has a pEC50 of under 5.70. `O=C(COCc1ccc(F)cc1)NC12CC(NC(=O)COc3ccc(Cl)c(Cl)c3)(C1)C2` [Compound 157, 2-(3,4-dichlorophenoxy)-N-(3-{2-[(4-fluorophenyl)methoxy]acetamido}-bicyclo[1.1.1]pentan-1-yl)acetamide] showed a pEC50 of 7.30 to 8.00. Work on `COc1cc(OCC(=O)NC23CCC(NC(=O)COc4ccc(F)c(F)c4)(CC2)C[C@@H]3O)ccc1F` [Compound 770, 2-(3,4-difluorophenoxy)-N-{(3S)-4-[2-(4-fluoro-3-methoxyphenoxy)acetamido]-3-hydroxybicyclo[2.2.2]octan-1-yl}acetamide] yielded a pEC50 of over 8.00. For `O=C(COc1ccc(Cl)c(F)c1)NC12CCC(NC(=O)COc3ccc(Cl)c(F)c3)(CC1)C(=O)C2` [Compound 272, N,N′-(2-oxobicyclo[2.2.2]octane-1,4-diyl)bis[2-(4-chloro-3-fluorophenoxy)acetamide]], the pEC50 was over 8.00. For `O=C(COc1cccc(C(F)(F)F)n1)NC12CCC(NC(=O)COc3ccc(Cl)c(F)c3)(CC1)[C@@H](O)C2` [Compound 824, 2-(4-chloro-3-fluorophenoxy)-N-[(2S)-2-hydroxy-4-(2-{[6-(trifluoromethyl)pyridin-2-yl]oxy}acetamido)bicyclo[2.2.2]octan-1-yl]acetamide], the pEC50 was 7.30 to 8.00. Compound `Cc1ccc(OCC(=O)NC23CCC(NC(=O)COc4ccc(OC(F)(F)F)cc4)(CC2)[C@@H](O)C3)cc1F` [Compound 736, 2-(3-fluoro-4-methylphenoxy)-N-[(3S)-3-hydroxy-4-{2-[4-(trifluoromethoxy)phenoxy]acetamido}bicyclo[2.2.2]octan-1-yl]acetamide] has a pEC50 of over 8.00. Work on `O=C(COc1ccc(F)c(F)c1)NC12CCC(NC(=O)COc3ccc(F)c(OC(F)F)c3)(CC1)[C@@H](O)C2` [Compound 796, 2-[3-(difluoromethoxy)-4-fluorophenoxy]-N-{(2S)-4-[2-(3,4-difluorophenoxy)acetamido]-2-hydroxybicyclo[2.2.2]octan-1-yl}acetamid6] yielded a pEC50 of 7.30 to 8.00. Work on `O=C(COc1ccc(Cl)c(F)c1)NC12CC(NC(=O)COc3ccc4c(c3)OC(F)(F)O4)(C1)C2` [Compound 258, 2-(4-chloro-3-fluorophenoxy)-N-(3-{2-[(2,2-difluoro-2H-1,3-benzodioxol-5-yl)oxy]acetamido}bicyclo[1.1.1]pentan-1-yl)acetamide] yielded a pEC50 of over 8.00. For `O=C(COc1cccc(C(F)(F)F)c1)NC12CCC(NC(=O)COc3ccc(Cl)c(F)c3)(CC1)[C@@H](O)C2` [Compound 466, 2-(4-chloro-3-fluorophenoxy)-N-[(2S)-2-hydroxy-4-{2-[3-(trifluoromethyl)phenoxy]acetamido}bicyclo[2.2.2]octan-1-yl]acetamide], the pEC50 was over 8.00. For `COc1ccc(/C=C/C(=O)NC23CC(NC(=O)COc4ccc(Cl)c(F)c4)(C2)C3)cc1` [Compound 347, (2E)-N-{3-[2-(4-chloro-3-fluorophenoxy)acetamido]bicyclo[1.1.1]pentan-1-yl}-3-(4-methoxyphenyl)prop-2-enamide], the pEC50 was 6.30 to 6.60. `O=C(COc1ccc(Cl)c(F)c1)NC12CCC(NC(=O)COc3ccc(C(F)(F)F)c(F)c3)(CC1)[C@@H](O)C2` [Compound 832, 2-(4-chloro-3-fluorophenoxy)-N-[(3S)-4-{2-[3-fluoro-4-(trifluoromethyl)phenoxy]acetamido}-3-hydroxybicyclo[2.2.2]octan-1-yl]acetamide] gave a pEC50 of over 8.00. `O=C(COc1ccc(Cl)c(F)c1)NC12CCC(OCCc3ccc(Cl)cc3)(CC1)CC2O` (centres unmarked) [Compound 611, 2-(4-chloro-3-fluorophenoxy)-N-{4-[2-(4-chlorophenyl)ethoxy]-2-hydroxybicyclo[2.2.2]octan-1-yl}acetamide] gave a pEC50 of 7.30 to 8.00. Compound `CC(C)(C)OC(=O)CN(CCOc1ccc(Cl)c(F)c1)C12CC(NC(=O)COc3ccc(Cl)c(F)c3)(C1)C2` [Compound 688, tert-butyl ({3-[2-(4-chloro-3-fluorophenoxy)acetamido]bicyclo[1.1.1]pentan-1-yl}[2-(4-chloro-3-fluorophenoxy)ethyl]amino)acetate] has a pEC50 of 6.60 to 7.30. Work on `Nc1cc(OCC(=O)NC23CC(NC(=O)COc4ccc(Cl)c(F)c4)(C2)C3)ccc1Cl` [Compound 228, 2-(3-amino-4-chlorophenoxy)-N-{3-[2-(4-chloro-3-fluorophenoxy)acetamido]-bicyclo[1.1.1]pentan-1-yl}acetamide] yielded a pEC50 of over 8.00. `COc1cc(OCC(=O)NC23CC(NC(=O)COc4ccc(Cl)c(F)c4)(C2)C3)ccc1Cl` [Compound 126, 2-(4-chloro-3-fluorophenoxy)-N-{3-[2-(4-chloro-3-methoxyphenoxy)acetamido]-bicyclo[1.1.1]pentan-1-yl}acetamide] was tested, and the pEC50 was over 8.00. In the case of `O=C(COc1ccc(F)cc1)NC12CC(NC(=O)COc3ccc(Cl)c(Cl)c3)(C1)C2` [Compound 532, 2-(3,4-dichlorophenoxy)-N-{3-[2-(4-fluorophenoxy)acetamido]bicyclo[1.1.1]pentan-1-yl}acetamide], the pEC50 was over 8.00. Compound `COCc1ccccc1OCC(=O)NC12CCC(NC(=O)COc3ccc(Cl)c(F)c3)(CC1)[C@@H](O)C2` [Compound 776, 2-(4-chloro-3-fluorophenoxy)-N-[(2S)-2-hydroxy-4-{2-[2-(methoxymethyl)phenoxy]acetamido}bicyclo[2.2.2]octan-1-yl]acetamide] has a pEC50 of under 5.70. In the case of `O=C(COCc1cccc(C(=O)O)c1)NC12CC(NC(=O)COc3ccc(Cl)c(F)c3)(C1)C2` [Compound 212, 3-{[2-({3-[2-(4-chloro-3-fluorophenoxy)acetamido]bicyclo[1.1.1]pentan-1-yl}amino)-2-oxoethoxy]methyl}benzoic Acid], the pEC50 was under 5.70. With `O=C(COc1ccc(Cl)c(F)c1)NC12CCC(NC(=O)COc3noc4ccccc34)(CC1)[C@@H](O)C2` [Compound 515, 2-[(1,2-benzoxazol-3-yl)oxy]-N-{(2S)-4-[2-(4-chloro-3-fluorophenoxy)acetamido]-2-hydroxybicyclo[2.2.2]octan-1-yl}acetamide] the pEC50 was over 8.00. `O=C(COc1ccc(Cl)c(F)c1)NC12C=C(C(=O)O)C(NC(=O)COc3ccc(Cl)c(F)c3)(CC1)CC2` [Compound 717, 1,4-bis[2-(4-chloro-3-fluorophenoxy)acetamido]bicyclo[2.2.2]oct-2-ene-2-carboxylic Acid] showed a pEC50 of 6.60 to 7.30. Work on `O=C(COc1ccc(Cl)c(F)c1)NC12CCC(NC(=O)COc3cncc(C(F)(F)F)c3)(CC1)C(O)C2` (centres unmarked) [Compound 306, 2-(4-chloro-3-fluorophenoxy)-N-[3-hydroxy-4-(2-{[5-(trifluoromethyl)pyridin-3-yl]oxy}acetamido)bicyclo[2.2.2]octan-1-yl]acetamide] yielded a pEC50 of over 8.00. With `O=C(COc1ccc(Cl)c(F)c1)NC12CCC(NC(=O)COc3ccc(F)c(Cl)c3)(C1)C2` [Compound 535, 2-(3-chloro-4-fluorophenoxy)-N-{4-[2-(4-chloro-3-fluorophenoxy)acetamido]bicyclo[2.1.1]hexan-1-yl}acetamide] the pEC50 was 7.30 to 8.00. For `CN(C)c1cccc(COCC(=O)NC23CC(NC(=O)COc4ccc(Cl)c(F)c4)(C2)C3)c1` [Compound 141], the pEC50 was 5.70 to 6.30. With `O=C(O)CN(CCOc1ccc(Cl)c(F)c1)C12CC(NC(=O)COc3ccc(Cl)c(F)c3)(C1)C2` [Compound 686, ({3-[2-(4-chloro-3-fluorophenoxy)acetamido]bicyclo[1.1.1]pentan-1-yl}[2-(4-chloro-3-fluorophenoxy)ethyl]amino)acetic Acid] the pEC50 was 5.70 to 6.30. `O=C(COc1ccc(F)cc1)NC12CC(NC(=O)COc3ccc(Cl)cc3)(C1)C2` [Compound 120, 2-(4-chlorophenoxy)-N-{3-[2-(4-fluorophenoxy)acetamido]bicyclo-[1.1.1]pentan-1-yl}acetamide] gave a pEC50 of 7.30 to 8.00. For `O=C(CCOc1cccc(Cl)c1)NC12CC(NC(=O)COc3ccc(Cl)c(Cl)c3)(C1)C2` [Compound 169, 3-(3-chlorophenoxy)-N-{3-[2-(3,4-dichlorophenoxy)acetamido]bicyclo-[1.1.1]pentan-1-yl}propanamide], the pEC50 was 6.30 to 6.60. Work on `CCCS(=O)(=O)c1ccc(OCC(=O)NC23CCC(NC(=O)COc4ccc(Cl)c(F)c4)(CC2)[C@@H](O)C3)cc1` [Compound 474, 2-(4-chloro-3-fluorophenoxy)-N-[(2S)-2-hydroxy-4-{2-[4-(propane-1-sulfonyl)phenoxy]acetamido}bicyclo[2.2.2]octan-1-yl]acetamide] yielded a pEC50 of under 5.70.
